Data: US20230220410A1, “PLANTS TOLERANT TO BROAD RANGE OF PATHOGENS” (RAMOT AT TEL-AVIV UNIVERSITY LTD., priority 2020, published 2023)
pIC50: −log10 of the molar value. “Also recorded” adds a separate entry of the source. Read-outs that look alike come from different tables or passages of the source.

Key:
[1] = test system: I3CT1 transgenic strains; assay: Root growth of I3CT1 on 50% and 90% inhibition concentrations of plant defense molecules; type: in vivo, Arabidopsis thaliana; conditions: FIG. 4B
Experimental: FIG. 4A: Plant defense molecules assayed: Breakdown products of indol-3-acetaldoxime (upper left panel), Breakdown products of I3C (lower panel), and benzoxazinoids (right panel). FIG. 4B: I3CT1 and WT were grown on 50% and 90% inhibition concentrations of the chemicals shown in μM. Data represent mean±SE.
(§1) To test if overexpression of S30 causes tolerance specifically to I3C, or rather causes general tolerance to external chemical stress, root growth was tested with the addition of three groups of molecules to the growth medium: two subcategories of indole derivates: 1. Breakdown products of indol-3-acetaldoxime such as I3C, indol-3-acetic acid (IAA), and 3—Indoleacetonitril (IAN); and 2. breakdown products of I3C such as 3, 3Diindolylmethane (DIM), indole-3-carboxaldehyde (I3xA), and methyl Indole 3-carboxylate (MI3Cx). The third group contains benzoxazinoids: 2-Benzoxazolinon (BOA) and 6-Methoxy-2-benzoxazolinone (mBOA). Benzoxanoids are chemically unrelated to I3C, but with similar function of plant defense in gramineae (FIG. 4A). WT and the I3CT1 transgenic strains were assayed for root growth on 50% and 90% inhibition concentrations (IC) of the above molecules (Table 3).

[2] = test system: WT (Col-0) Arabidopsis; assay: Root elongation / root growth-rate inhibition on MS with the substance, wild type; type: in vivo, Arabidopsis thaliana
Text: (§2) The Arabidopsis strains used were all in the Columbia-0 (Col-0) background. The gain of function lines psx00478 and psx08098 containing pBIG2113SF binary vector, expressing a single cDNA under 35S promoter, were ordered from FOX library (Takanari I. et al., 2006. ibid). Transgenic lines were generated using pBINPLUS (van Engelen F A et al., 1995. Transgenic Research 4, 288-290), in which AT2G19750 gene was cloned downstream of the 35S promoter, and transformed to WT Col-0 via Agrobacterium cv3101 mediated transformation. The presence of the transgene was confirmed by PCR with specific primers for S30. Seeds were cultivated in Petri plates using medium containing 0.8% agar, half-strength Murashige and Skoog salts (MS), and 1% sucrose, pH 5.7. The Petri plates were placed in chambers at 22° C. under light/dark conditions of 16 h white light at 75 mol m^2 sec^−1 and 8 h darkness, at 55% relative humidity. For root phenotype experiments, plates were placed vertically in the chambers.
To calculate the percentage of growth inhibition, seeds were germinated on MS containing the following concentrations of I3C: 0, 50, 100, 200, 300, 400, 500 and 750 μM. The root length of the seedlings was measured at days 3, 4, 5, 7 and 10. To calculate the percentage of growth inhibition, the slope of the regression lines for each concentration was used in the next equation: […]
To calculate the degree of tolerance to I3C, growth rates of WT and the I3CT1 strains were determined for increasing concentrations of I3C. Root length was measured at several time points over increasing I3C concentrations (FIG. 3). The growth rate of the WT and the I3CT1 transgenic lines was similar on MS; however, a growth rate of 3 and 2.3 times faster was observed on 400 μM I3C for the transgenic lines I3CT1^2 and I3CT1^8098 respectively. […] However, the growth rate of the WT was inhibited by 50% at about 50 μM while the growth rate of the I3CT1^2 and I3CR1^8098 transgenic lines was inhibited by 50% only when the I3C concentration was 300 μM and 200 μM respectively.
as §1

[3] = test system: WT (Col-0) Arabidopsis; assay: Root length on I3C, IAA and mixtures (auxin antagonism), WT; type: in vivo, Arabidopsis thaliana
Experimental: I3CT1^2, I3CT1^8098 (FIG. 10A, designated as ICT1) and WT (FIG. 10B) plants were grown on three concentrations of I3C (50, 200, 500 μM), three concentrations of IAA (50, 200, 500 nM) and mixtures between the two. Root length was measured, and the mean root length of the transgenic lines I3CT1^2, I3CT1^8098 was calculated (presented as “I3CT1”). Three-way ANOVA was performed after SQRT transformation to obtain a normal distribution. FIG. 10C: The model of inhibition.
It was previously shown that I3C acts as an auxin antagonist on TIR1 (Katz et al., 2015b, ibid).

[4] = test system: WT (Col-0) Arabidopsis; conditions: 400 μM I3C; cited from earlier work
[5] = test system: I3CT1^2 transgenic line (S30 overexpressing); assay: Root growth-rate inhibition by I3C, transgenic line I3CT1^2; type: in vivo, Arabidopsis thaliana; conditions: I3CT1^2, root growth rate
Text: as §2, with “For root phenotype experiments, plates were placed vertically in the chambers.” left out
(§3) To calculate the percentage of growth inhibition, seeds were germinated on MS containing the following concentrations of I3C: 0, 50, 100, 200, 300, 400, 500 and 750 μM. The root length of the seedlings was measured at days 3, 4, 5, 7 and 10. […]
(§4) To calculate the degree of tolerance to I3C, growth rates of WT and the I3CT1 strains were determined for increasing concentrations of I3C. Root length was measured at several time points over increasing I3C concentrations (FIG. 3). […]

[6] = test system: I3CT1^8098 transgenic line (S30 overexpressing); assay: Root growth-rate inhibition by I3C, transgenic line I3CT1^8098; type: in vivo, Arabidopsis thaliana; conditions: I3CT1^8098 (printed I3CR1^8098)
Text: as §2, with “For root phenotype experiments, plates were placed vertically in the chambers.” left out
as §3, §4

[7] = root elongation, Table 3, read-out: substance concentration inhibiting root elongation by 50%
[8] = read-out: I3C concentration at which growth rate was inhibited by 50%
[9] = Arabidopsis thaliana, root elongation, Table 3, read-out: substance concentration inhibiting root elongation by 50%

| Structure (SMILES) | tolerance of I3CT1 to the chemical (root growth) [1] | substance concentration inhibiting root elongation by 90% ([2]; root elongation, Table 3) [µM] | pIC50 [2, 7] | pIC50 [2, 9] | further results |
| --- | --- | --- | --- | --- | --- |
| N#CCc1c[nH]c2ccccc12 [IAN, Indole 3-acetonitril] | did not exhibit any pronounced tolerance | 160 | 4.30 |  |  |
| O=c1[nH]c2ccccc2o1 [BOA, 2-Benzoxazolinon] |  | 400 |  |  | pIC50 ([2]; Arabidopsis thaliana, read-out: substance concentration inhibiting root elongation by 50%): 4.30 |
| O=Cc1c[nH]c2ccccc12 [I3xA, Indole 3-Carboxalldehyde] | did not exhibit any pronounced tolerance | 300 | 3.85 |  |  |
| OCc1c[nH]c2ccccc12 [I3C, Indole 3-carbinol] | tolerance of the I3CT1 line was limited to three chemicals | 400 | 4.00 |  | inhibition of root elongation by I3C itself ([3]; 500 μM I3C): 95%; rescue of IAA root-elongation inhibition by I3C ([3]; 50 and 200 μM I3C added to IAA, WT): rescues the IAA phenotype; I3C concentration of 90% inhibition ([2]; WT, root growth rate): 400 µM; pIC50 ([2]; WT, root growth rate, read-out: I3C concentration at which growth rate was inhibited by 50%): ~4.30; I3C concentration of maximum inhibition ([2]; all strains (WT and I3CT1 lines)): 750 µM; inhibition of root elongation [4]: 95%; I3C concentration of 90% inhibition [5]: 750 µM; pIC50 [5, 8]: 3.52; I3C concentration of 90% inhibition [6]: 500 µM; pIC50 [6, 8]: 3.70 |
| c1ccc2c(Cc3c[nH]c4ccccc34)c[nH]c2c1 [DIM, 3,3′-Diindolylmethane] | tolerance of the I3CT1 line was limited to three chemicals | 200 |  | 4.22 |  |
| COc1ccc2[nH]c(=O)oc2c1 [mBOA, 6-Methoxy-2-benzoxazolinone] |  | 400 |  | 4.30 |  |
| O=C(O)Cc1c[nH]c2ccccc12 [IAA, Indole-3-acetic acid] | tolerance of the I3CT1 line was limited to three chemicals; also recorded: slight tolerance | 200 |  | 4.30 |  |
| COC(=O)c1c[nH]c2ccccc12 [MI3Cx, Methyl Indole 3-Carboxylate] | did not exhibit any pronounced tolerance | 375 |  | 3.70 |  |
